# Results published in patent US8329904B2, “Azacyclic derivatives” (Hoffmann-La Roche Inc., priority 2009, dated 2012).
# Target: T1, human HSL (Homo sapiens, UniProt Q05469)
# T1 construct: overlapping PCR to generate a full length human HSL ORF with a 3′-His6 tag; His6 (C); made in house; host or cells: High 5 insect cells (baculovirus, pFast-BAC)
# T1 sequence (Q05469 1-1076): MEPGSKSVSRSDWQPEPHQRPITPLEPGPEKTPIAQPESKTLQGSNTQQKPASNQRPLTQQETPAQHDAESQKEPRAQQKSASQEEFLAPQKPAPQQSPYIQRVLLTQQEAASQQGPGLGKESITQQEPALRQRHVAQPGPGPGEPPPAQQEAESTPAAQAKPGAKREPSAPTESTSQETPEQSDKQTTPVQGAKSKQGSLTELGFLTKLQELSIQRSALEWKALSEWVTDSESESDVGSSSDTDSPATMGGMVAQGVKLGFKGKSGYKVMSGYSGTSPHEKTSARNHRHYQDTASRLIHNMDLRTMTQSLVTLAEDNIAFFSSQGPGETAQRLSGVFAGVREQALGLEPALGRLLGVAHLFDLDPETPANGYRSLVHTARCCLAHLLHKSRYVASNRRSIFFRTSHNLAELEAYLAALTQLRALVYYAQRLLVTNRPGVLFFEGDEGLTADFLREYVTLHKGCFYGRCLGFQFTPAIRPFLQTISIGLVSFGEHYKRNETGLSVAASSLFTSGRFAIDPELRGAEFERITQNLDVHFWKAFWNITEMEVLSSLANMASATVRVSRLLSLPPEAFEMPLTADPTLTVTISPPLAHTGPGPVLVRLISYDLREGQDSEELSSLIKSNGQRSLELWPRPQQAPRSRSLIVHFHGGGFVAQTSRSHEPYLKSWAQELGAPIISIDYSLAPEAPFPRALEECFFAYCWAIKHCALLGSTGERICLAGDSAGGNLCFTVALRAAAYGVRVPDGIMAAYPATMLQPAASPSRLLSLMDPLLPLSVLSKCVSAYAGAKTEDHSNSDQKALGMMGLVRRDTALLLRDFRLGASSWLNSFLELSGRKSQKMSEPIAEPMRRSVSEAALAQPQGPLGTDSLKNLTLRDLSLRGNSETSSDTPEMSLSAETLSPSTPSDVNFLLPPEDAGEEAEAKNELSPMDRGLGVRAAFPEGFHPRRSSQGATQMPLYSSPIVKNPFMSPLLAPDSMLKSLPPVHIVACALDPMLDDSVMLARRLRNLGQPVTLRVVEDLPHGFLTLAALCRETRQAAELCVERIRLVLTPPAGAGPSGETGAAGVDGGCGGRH
# Assay: Human Hormone-Sensitive Lipase (HSL) Enzyme Inhibition Assay
# Assay type: biochemical
# Details: colorimetric assay, 2,3-dimercapto-1-propanol tributyrate (DMPT) substrate, 37° C. for 20 minutes, absorbance at 405 nm; read-out: HSL hum IC50
# Procedure, shortened: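 Colorimetric thioester hydrolysis: compounds in DMSO series mixed with DMPT (1.5 mM) in MOPS pH 7.2 with BSA, then baculovirus-expressed His6-tagged full-length human HSL added, 37° C, 20 min. DTNB plus detergents added, 15 min room temperature, absorbance at 405 nm.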
row,Compound,IC50 [nM]
1,"CCN(CCOC)S(=O)(=O)N1CCC2(CCN(c3ccc(OC(F)(F)F)cc3)C2=O)CC1 [Example 294, 1-Oxo-2-(4-trifluoromethoxy-phenyl)-2,8-diaza-spiro[4.5]decane-8-sulfonic acid ethyl-(2-methoxy-ethyl)-amide]",90
2,"CN(c1ccccc1)S(=O)(=O)N1CCC2(CCN(c3ccc(OC(F)(F)F)cc3)C2=O)CC1 [Example 295, 1-Oxo-2-(4-trifluoromethoxy-phenyl)-2,8-diaza-spiro[4.5]decane-8-sulfonic acid methyl-phenyl-amide]",70
3,"CN(Cc1ccccc1)S(=O)(=O)N1CCC2(CCN(c3ccc(OC(F)(F)F)cc3)C2=O)CC1 [Example 296, 1-Oxo-2-(4-trifluoromethoxy-phenyl)-2,8-diaza-spiro[4.5]decane-8-sulfonic acid benzyl-methyl-amide]",70
4,"CN(CCc1ccccc1)S(=O)(=O)N1CCC2(CCN(c3ccc(OC(F)(F)F)cc3)C2=O)CC1 [Example 297, 1-Oxo-2-(4-trifluoromethoxy-phenyl)-2,8-diaza-spiro[4.5]decane-8-sulfonic acid methyl-phenethyl-amide]",110
5,"CN(CCc1ccccn1)S(=O)(=O)N1CCC2(CCN(c3ccc(OC(F)(F)F)cc3)C2=O)CC1 [Example 298, 1-Oxo-2-(4-trifluoromethoxy-phenyl)-2,8-diaza-spiro[4.5]decane-8-sulfonic acid methyl-(2-pyridin-2-yl-ethyl)-amide]",160
6,"CN(C(=O)N1CCC2(CC1)CCN(c1ccc(OC(F)(F)F)cc1)C2=O)c1ccc(C(F)(F)F)cc1 [Example 299, 1-Oxo-2-(4-trifluoromethoxy-phenyl)-2,8-diaza-spiro[4.5]decane-8-carboxylic acid methyl-(4-trifluoromethyl-phenyl)-amide]",170
7,"CN(C(=O)N1CCC2(CC1)CCN(c1ccc(OC(F)(F)F)cc1)C2=O)c1ccc(Cl)cc1 [Example 300, 1-Oxo-2-(4-trifluoromethoxy-phenyl)-2,8-diaza-spiro[4.5]decane-8-carboxylic acid (4-chloro-phenyl)-methyl-amide]",60
8,"CN(C(=O)N1CCC2(CC1)CCN(c1ccc(OC(F)(F)F)cc1)C2=O)c1ccc(Cl)c(Cl)c1 [Example 301, 1-Oxo-2-(4-trifluoromethoxy-phenyl)-2,8-diaza-spiro[4.5]decane-8-carboxylic acid (3,4-dichloro-phenyl)-methyl-amide]",110
9,"CN(C(=O)N1CCC2(CC1)CCN(c1ccc(OC(F)(F)F)cc1)C2=O)c1cccc(Cl)c1 [Example 302, 1-Oxo-2-(4-trifluoromethoxy-phenyl)-2,8-diaza-spiro[4.5]decane-8-carboxylic acid (3-chloro-phenyl)-methyl-amide]",40
10,"CCCCN(CC)C(=O)N1CCC2(CC1)CCN(c1ccc(OC(F)(F)F)cc1)C2=O [Example 303, 1-Oxo-2-(4-trifluoromethoxy-phenyl)-2,8-diaza-spiro[4.5]decane-8-carboxylic acid butyl-ethyl-amide]",140
11,"CCN(C(=O)N1CCC2(CC1)CCN(c1ccc(OC(F)(F)F)cc1)C2=O)C(C)C [Example 304, 1-Oxo-2-(4-trifluoromethoxy-phenyl)-2,8-diaza-spiro[4.5]decane-8-carboxylic acid ethyl-isopropyl-amide]",80
12,"CCN(C(=O)N1CCC2(CC1)CCN(c1ccc(OC(F)(F)F)cc1)C2=O)C1CCCCC1 [Example 305, 1-Oxo-2-(4-trifluoromethoxy-phenyl)-2,8-diaza-spiro[4.5]decane-8-carboxylic acid cyclohexyl-ethyl-amide]",140
13,"CCN(Cc1ccccc1F)C(=O)N1CCC2(CC1)CCN(c1ccc(OC(F)(F)F)cc1)C2=O [Example 306, 1-Oxo-2-(4-trifluoromethoxy-phenyl)-2,8-diaza-spiro[4.5]decane-8-carboxylic acid ethyl-(2-fluoro-benzyl)-amide]",160
14,"CCN(Cc1ccncc1)C(=O)N1CCC2(CC1)CCN(c1ccc(OC(F)(F)F)cc1)C2=O [Example 307, 1-Oxo-2-(4-trifluoromethoxy-phenyl)-2,8-diaza-spiro[4.5]decane-8-carboxylic acid ethyl-pyridin-4-ylmethyl-amide]",350
15,"CCN(C(=O)N1CCC2(CC1)CCN(c1ccc(OC(F)(F)F)cc1)C2=O)c1cccc(C)c1 [Example 308, 1-Oxo-2-(4-trifluoromethoxy-phenyl)-2,8-diaza-spiro[4.5]decane-8-carboxylic acid ethyl-m-tolyl-amide]",50
16,"CCN(C(=O)N1CCC2(CC1)CCN(c1ccc(OC(F)(F)F)cc1)C2=O)c1ccc(Cl)cc1 [Example 309, 1-Oxo-2-(4-trifluoromethoxy-phenyl)-2,8-diaza-spiro[4.5]decane-8-carboxylic acid (4-chloro-phenyl)-ethyl-amide]",120
17,"CCN(Cc1ccccc1)C(=O)N1CCC2(CC1)CCN(c1ccc(OC(F)(F)F)cc1)C2=O [Example 310, 1-Oxo-2-(4-trifluoromethoxy-phenyl)-2,8-diaza-spiro[4.5]decane-8-carboxylic acid benzyl-ethyl-amide]",170
18,"CCN(C(=O)N1CCC2(CC1)CCN(c1ccc(OC(F)(F)F)cc1)C2=O)c1ccc(OC(F)(F)F)cc1 [Example 311, 1-Oxo-2-(4-trifluoromethoxy-phenyl)-2,8-diaza-spiro[4.5]decane-8-carboxylic acid ethyl-(4-trifluoromethoxy-phenyl)-amide]",60
19,"Cc1cccc(Cl)c1S(=O)(=O)N1CCC2(CCN(c3ccc(OC(F)(F)F)cc3)C2=O)CC1 [Example 312, 8-(2-Chloro-6-methyl-benzenesulfonyl)-2-(4-trifluoromethoxy-phenyl)-2,8-diaza-spiro[4.5]decan-1-one]",80
20,"CC(C)CN(C)C(=O)N1CCC2(CC1)CCN(c1ccc(C3CC3)cc1)C2=O [Example 313, 2-(4-Cyclopropyl-phenyl)-1-oxo-2,8-diaza-spiro[4.5]decane-8-carboxylic acid isobutyl-methyl-amide]",90
21,"CCCCN(C)C(=O)N1CCC2(CC1)CCN(c1ccc(C3CC3)cc1)C2=O [Example 314, 2-(4-Cyclopropyl-phenyl)-1-oxo-2,8-diaza-spiro[4.5]decane-8-carboxylic acid butyl-methyl-amide]",130
